# Experiments:
# Novikoff hepatoma cells = test: Proliferation of Novikoff hepatoma cells, cell count per flask after four days of cultivation; assay type: cell-based; conditions: FIGS. 1 and 2
# Excerpt: The Novikoff hepatoma cells that were used derived from the Tumor Bank of the German Cancer Research Center, Heidelberg (Cancer Research 1951, 17, 1010). 100,000 cells were spread out per 25 cm^2 of cultivation surface on each occasion. After having been dissolved in a solvent, such as e.g. water, diluted ethanol, dimethyl sulfoxide or a similar material that is suitable for use in cell cultures, the substance in accordance with the invention according to Example 1, or L-cycloserine, or dehydrothreonine was added to the culture medium in increasing concentrations, e.g. L-cycloserine (Compound 16) or dehydrothreonine (Compound 2) in the range of concentrations from 80 μM-5000 μM; and carbomethoxypropionyl cyanide (Compound 13) in the range of concentrations from 100 μM-300 μM. The cell count per flask was enumerated after four days of cultivation.
# Novikoff cells = test: Effect on the metabolism (flow of glycolysis) of Novikoff cells; assay type: cell-based; conditions: FIG. 3
SMILES,inhibition of proliferation (cell count per flask) in comparison to the control sample (Novikoff hepatoma cells; concentrations 80 μM-5000 μM),flow of glycolysis (Novikoff cells),inhibition of proliferation (cell count per flask) in comparison to the control sample (Novikoff hepatoma cells; concentrations 100 μM-300 μM)
"C/C(O)=C(/N)C(=O)O [Compound 2, dehydrothreonine]",dose-dependent inhibition of proliferation,,
"COC(=O)CCC(=O)C#N [Compound 9, methyl ester of 4-cyano, 4-oxo-butanoic acid]",,massively inhibited the flow of glycolysis,dose-dependent inhibition of proliferation
"N[C@H]1CONC1=O [Compound 16, L-cycloserine]",dose-dependent inhibition of proliferation,,

# — patent US20040152772A1, “1-butyric acid derivatives and the use thereof” (priority 2001, published 2004)
